This experiment concerns db/db mice. Put plainly: Evaluation of glucose levels in db/db mice. Format: in vivo. The note with it: Mus musculus, 168 h, 30 mg/kg oral gavage daily for 7 days, 100% = glucose not different from lean values, read-out: Glucose Normalisation. On the procedure:
Five week old male diabetic (db/db) mice [C57BlKs/j-m+/+ Lepr(db), Jackson Laboratory, Bar Harbor, Me.] or lean littermates (db+) were housed 6 per cage (10″×20″×8″ with aspen chip bedding) with food (Purina 5015) and water available at all times. After an acclimation period of 2 weeks, animals were individually identified by ear notches, weighed, and bled via the tail vein for determination of initial glucose levels. Blood was collected (100 μl) from unfasted animals by wrapping each mouse in a towel, cutting the tip of the tail with a scalpel, and milking blood from the tail into a heparinized capillary tube (Fisher) balanced on the edge of the bench. Sample was discharged into a heparinized microtainer with gel separator (VWR) and retained on ice. Plasma was obtained after centrifugation at 4° C. and glucose measured immediately. Remaining plasma was frozen until the completion of the experiment, when glucose and triglycerides were assayed in all samples. Animals were grouped based on initial glucose levels and body weights. Beginning the following morning, mice were dosed daily by oral gavage for 7 days using a 20 gauge, 1½″ curved disposable feeding needle. Treatments were test compounds (30 mg/kg), a positive control agent (30 mg/kg) or vehicle [1% carboxymethylcellulose (w/v)/0.25% Tween80 (w/v); 0.3 ml/mouse]. On day 7, mice were weighed and bled (tail vein) 3 hours after dosing. Twenty-four hours after the 7th dose (i.e., day 8), animals were bled again (tail vein). Samples obtained from conscious animals on days 0, 7 and 8 were assayed for glucose. After the 24 hour bleed, animals were weighed and dosed for the final time. Three hours after dosing on day 8, animals were anesthetized by inhalation of isoflurane and blood obtained via cardiac puncture (0.5-0.7 ml). Whole blood was transferred to serum separator tubes, chilled on ice and permitted to clot. Serum was obtained after centrifugation at 4° C. and frozen until analysis for compound levels. After sacrifice by cervical dislocation, the liver, heart and epididymal fat pads were excised and weighed.
The animals dosed with vehicle had average triglycerides values of 170-230 mg/dl, which were reduced by the positive PPARγ control (70-120 mg/dl with a mean reduction of 50%). Male db/db mice were hyperglycemic (average glucose of 680-730 mg/dl on the 7th day of treatment), while lean animals had average glucose levels between 190-230 mg/dl.
Glucose was measured […] using commercially purchased reagents (Sigma #315-500). According to the manufacturers, the procedures were modified from published work (McGowan, M. W., Artiss, J. D., Strandbergh, D. R. & Zak, B. Clin Chem, 20:470-5 (1974) and Keston, A. Specific colorimetric enzymatic analytical reagents for glucose. Abstract of papers 129th Meeting ACS, 31C (1956).); and depend on the release of a mole of hydrogen peroxide for each mole of analyte, coupled with a color reaction first described by Trinder (Trinder, P. Determination of glucose in blood using glucose oxidase with an alternative oxygen acceptor. Ann Clin Biochem, 6:24 (1969)). The absorbance of the dye produced is linearly related to the analyte in the sample. The assays were further modified in our laboratory for use in a 96 well format. Standards (Sigma #339-11, Sigma #16-11, and Sigma #CC0534 for glucose, triglycerides and total cholesterol, respectively), quality control plasma (Sigma # A2034), and samples (2 or 5 μl/well) were measured in duplicate using 200 μl of reagent. An additional aliquot of sample, pipetted to a third well and diluted in 200 μl water, provided a blank for each specimen. Plates were incubated at room temperature (18, 15, and 10 minutes for glucose, triglycerides and total cholesterol, respectively) on a plate shaker (DPC Micormix 5) and absorbance read at 500 nm (glucose and total cholesterol) or 540 nm (triglycerides) on a plate reader (Wallac Victor 1420). […]

Molecules are shown by their SMILES.

For `Cc1oc(-c2cccc(Br)c2)nc1CCOc1ccc(CC(C)(Oc2ccccc2)C(=O)O)cc1` (stereo not drawn) [Example 8, 3-(4-{2-[2-(3-Bromophenyl)-5-methyloxazol-4-yl]ethoxy}phenyl)-2-methyl-2-phenoxypropionic acid], the inhibition in vivo at 30 mg/kg came out at 97%. To `Cc1oc(C2(C)CCCCC2)nc1CCOc1ccc(CC(C)(Oc2ccccc2)C(=O)O)cc1` (stereo not drawn) [Example 9, 2-Methyl-3-(4-{2-[5-methyl-2-(1-methylcyclohexyl)oxazol-4-yl]ethoxy}phenyl)-2-phenoxypropionic acid] belongs 95%; to `Cc1oc(-c2cccs2)nc1CCOc1ccc(CC(C)(Oc2ccc(C(C)(C)C)cc2)C(=O)O)cc1` (stereo not drawn) [Example 17, 2-Methyl-3-{4-[2-(5-methyl-2-thiophen-2-yl-oxazol-4-yl)-ethoxy]-phenyl}-2-(4-tert-butylphenoxy)-propionic acid], 112%; to `Cc1oc(C2CCCCC2)nc1CCOc1ccc(CC(C)(Oc2ccc(C(C)(C)C)cc2)C(=O)O)cc1` (stereo not drawn) [Example 18, 2-Methyl-3-(4-{2-[5-methyl-2-cyclohexylyl-oxazol-4-yl]-ethoxy}-phenyl)-2-(4-tert-butylphenoxy)-propionic acid], 110%. As for `COc1ccc(OC(C)(Cc2ccc(OCCc3nc(-c4cccs4)oc3C)cc2)C(=O)O)cc1` (stereo not drawn) [Example 19, 2-Methyl-3-{4-[2-(5-methyl-2-thiophen-2-yl-oxazol-4-yl)-ethoxy]-phenyl}-2-(4-methoxyphenoxy)-propionic acid], the figure is 95%. For `Cc1oc(-c2cccs2)nc1CCOc1ccc(CC(C)(Oc2cccc(F)c2)C(=O)O)cc1` (stereo not drawn) [Example 22, 2-(3-Fluoro-phenoxy)-2-methyl-3-{4-[2-(5-methyl-2-thiophen-2-yl-oxazol-4-yl)-ethoxy]-phenyl}-propionic acid], the inhibition in vivo at 30 mg/kg amounted to 85%. As for `Cc1oc(C2CCCCC2)nc1CCOc1ccc(CC(C)(Oc2cccc(F)c2)C(=O)O)cc1` (stereo not drawn) [Example 23, 2-(3-Fluoro-phenoxy)-2-methyl-3-{4-[2-(5-methyl-2-cyclohexyl-oxazol-4-yl)-ethoxy]-phenyl}-propionic acid], the figure is 97%; as for `Cc1oc(-c2cccs2)nc1CCOc1ccc(CC(C)(Oc2cccc(C(C)(C)C)c2)C(=O)O)cc1` (stereo not drawn) [Example 25, 2-(3-tert-Butyl-phenoxy)-2-methyl-3-{4-[2-(5-methyl-2-thiophen-2-yl-oxazol-4-yl)-ethoxy]-phenyl}-propionic acid], 73%.

On to `Cc1oc(-c2cccs2)nc1CCOc1ccc(CC(C)(Oc2ccccc2F)C(=O)O)cc1` (stereo not drawn) [Example 27, 2-(2-Fluoro-phenoxy)-2-methyl-3-{4-[2-(5-methyl-2-thiophen-2-yl-oxazol-4-yl)-ethoxy]-phenyl}-propionic acid], for which the inhibition in vivo at 30 mg/kg was 86%. As for `Cc1oc(-c2ccccc2)nc1CCOc1ccc(CC(C)(Oc2ccc(Cl)cc2)C(=O)O)cc1` (stereo not drawn) [Example 29, 2-(4-Chloro-phenoxy)-2-methyl-3-{4-[2-(5-methyl-2-phenyl-oxazol-4-yl)-ethoxy]-phenyl}-propionic acid], the figure is 86%; as for `Cc1oc(C2CCCCC2)nc1CCOc1ccc(CC(C)(Oc2ccc(C3CCCCC3)cc2)C(=O)O)cc1` (stereo not drawn) [Example 34, 3-{4-[2-(2-Cyclohexyl-5-methyl-oxazol-4-yl)-ethoxy]-phenyl}-2-(4-cyclohexyl-phenoxy)-2-methyl-propionic acid], 80%; as for `Cc1ccc(OC(C)(Cc2ccc(OCCc3nc(C4CCCCC4)oc3C)cc2)C(=O)O)cc1C` (stereo not drawn) [Example 35, 3-{4-[2-(2-Cyclohexyl-5-methyl-oxazol-4-yl)-ethoxy]-phenyl}-2-(3,4-dimethyl-phenoxy)-2-methyl-propionic acid], 84%. As for `Cc1ccc(OC(C)(Cc2ccc(OCCc3nc(-c4cccs4)oc3C)cc2)C(=O)O)cc1C` (stereo not drawn) [Example 36, 2-(3,4-Dimethyl-phenoxy)-2-methyl-3-{4-[2-(5-methyl-2-thiophen-2-yl-oxazol-4-yl)-ethoxy]-phenyl}-propionic acid], the figure is 92%; as for `Cc1ccc(OC(C)(Cc2ccc(OCCc3nc(-c4cccs4)oc3C)cc2)C(=O)O)cc1` (stereo not drawn) [Example 40, 2-Methyl-3-{4-[2-(5-methyl-2-thiophen-2-yl-oxazol-4-yl)-ethoxy]-phenyl}-2-p-tolyloxy-propionic acid], 103%. For `Cc1ccc(OC(C)(Cc2ccc(OCCc3nc(C4CCCCC4)oc3C)cc2)C(=O)O)cc1` (stereo not drawn) [Example 41, 3-{4-[2-(2-Cyclohexyl-5-methyl-oxazol-4-yl)-ethoxy]-phenyl}-2-methyl-2-p-tolyloxy-propionic acid], the inhibition in vivo at 30 mg/kg was determined as 101%. To `Cc1oc(C2CCCCC2)nc1CCOc1ccc(CC(C)(Oc2ccc(OC(F)(F)F)cc2)C(=O)O)cc1` (stereo not drawn) [Example 44, 3-{4-[2-(2-Cyclohexyl-5-methyl-oxazol-4-yl)-ethoxy]-phenyl}-2-methyl-2-(4-trifluoromethoxy-phenoxy)-propionic acid] belongs 83%; to `Cc1oc(-c2cccs2)nc1CCOc1ccc(CC(C)(Oc2ccc(C(F)(F)F)cc2)C(=O)O)cc1` (stereo not drawn) [Example 51, 2-Methyl-3-{4-[2-(5-methyl-2-thiophen-2-yl-oxazol-4-yl)-ethoxy]-phenyl}-2-(4-trifluoromethyl-phenoxy)-propionic acid], 88%; to `Cc1oc(C2CCCCC2)nc1CCOc1ccc(CC(C)(Oc2ccc(C(F)(F)F)cc2)C(=O)O)cc1` (stereo not drawn) [Example 52, 3-{4-[2-(2-Cyclohexyl-5-methyl-oxazol-4-yl)-ethoxy]-phenyl}-2-methyl-2-(4-trifluoromethyl-phenoxy)-propionic acid], 98%.

Take `Cc1oc(C2CCCCC2)nc1CCOc1ccc(CC(C)(Oc2ccc(F)c(F)c2)C(=O)O)cc1` (stereo not drawn) [Example 58, 3-{4-[2-(2-Cyclohexyl-5-methyl-oxazol-4-yl)-ethoxy]-phenyl}-2-(3,4-difluoro-phenoxy)-2-methyl-propionic acid]: the inhibition in vivo at 30 mg/kg came out at 81%. As for `Cc1cccc(OC(C)(Cc2ccc(OCCc3nc(-c4cccs4)oc3C)cc2)C(=O)O)c1` (stereo not drawn) [Example 61, 2-Methyl-3-{4-[2-(5-methyl-2-thiophen-2-yl-oxazol-4-yl)-ethoxy]-phenyl}-2-m-tolyloxy-propionic acid], the figure is 79%; as for `Cc1cccc(OC(C)(Cc2ccc(OCCc3nc(C4CCCCC4)oc3C)cc2)C(=O)O)c1` (stereo not drawn) [Example 62, 3-{4-[2-(2-Cyclohexyl-5-methyl-oxazol-4-yl)-ethoxy]-phenyl}-2-methyl-2-m-tolyloxy-propionic acid], 79%; as for `Cc1oc(-c2cccs2)nc1CCOc1ccc(CC(C)(Oc2ccc(F)cc2)C(=O)O)cc1` (stereo not drawn) [Example 64, 2-(4-Fluoro-phenoxy)-2-methyl-3-{4-[2-(5-methyl-2-thiophen-2-yl-oxazol-4-yl)-ethoxy]-phenyl}-propionic acid], 97%. `Cc1oc(C2CCCCC2)nc1CCOc1ccc(CC(C)(Oc2ccc(F)cc2)C(=O)O)cc1` (stereo not drawn) [Example 65, 3-{4-[2-(2-Cyclohexyl-5-methyl-oxazol-4-yl)-ethoxy]-phenyl}-2-(4-fluoro-phenoxy)-2-methyl-propionic acid]: the inhibition in vivo at 30 mg/kg amounted to 99%.

Consider `Cc1oc(C2(C)CCCCC2)nc1CCOc1ccc(C[C@](C)(Oc2ccc(F)cc2)C(=O)O)cc1` [Example 67, (S)-2-(4-Fluoro-phenoxy)-2-methyl-3-(4-{2-[5-methyl-2-(1-methyl-cyclohexyl)-oxazol-4-yl]-ethoxy}-phenyl)-propionic acid], for which the inhibition in vivo at 30 mg/kg was determined as 96%.

The record behind these values is US7345070B2, “Peroxisome proliferator activated receptor agonists” (Eli Lilly and Company, priority 2000, dated 2008).
